The results in this text go back to patent US20250340574A1, “MODULATORS OF CYSTIC FIBROSIS TRANSMEMBRANE CONDUCTANCE REGULATOR” (Vertex Pharmaceuticals Incorporated, priority 2022, published 2025).

pEC50: −log10 of the molar value. Read-outs that look alike come from different tables or passages of the source.

Broadly, the pEC50 is the negative decadic logarithm of the EC50, by convention in mol/L.

This assay concerns the target T1, CFTR (F508del/MF-HBE cells) (Homo sapiens, UniProt P13569, DEL508-508).
T1 construct: human bronchial epithelial (HBE) cells derived from CF subjects heterozygous for F508del and a minimal function CFTR mutation (F508del/MF-HBE); endogenous in cells; host or cells: Primary human bronchial epithelial cells from CF subjects (F508del/MF genotype), differentiated at an air-liquid interface
Put plainly: Ussing chamber assay of CFTR-mediated short-circuit currents, Assay C (0.026 μM to 25 μM, 6 concentrations). Type of assay: cell-based. The note with it: with 33 nM potentiator and 18 μM Tezacaftor, 20% human serum; for Emax: read-out: C Max activity (%). As for the experimental part: Ussing chamber experiments were performed using human bronchial epithelial (HBE) cells derived from CF subjects heterozygous for F508del and a minimal function CFTR mutation (F508del/MF-HBE) and cultured as previously described (Neuberger T, Burton B, Clark H, Van Goor F Methods Mol Biol 2011:741:39-54). After four days the apical media was removed, and the cells were grown at an air liquid interface for >14 days prior to use.
To isolate the CFTR-mediated short-circuit (ISC) current, F508del/MF-HBE grown on Costar® Snapwell™ cell culture inserts were mounted in an Ussing chamber and the transepithelial ISC was measured under voltage-clamp recording conditions (Vhold=0 mV) at 37° C. The basolateral solution contained (in mM) 145 NaCl, 0.83 K2HPO4, 3.3 KH2PO4, 1.2 MgCl2, 1.2 CaCl2, 10 Glucose, 10 HEPES (pH adjusted to 7.4 with NaOH) and the apical solution contained (in mM) 145 NaGluconate, 1.2 MgCl2, 1.2 CaCl2, 10 glucose, 10 HEPES (pH adjusted to 7.4 with NaOH) and 30 μM amiloride to block the epithelial sodium channel. Forskolin (20 μM) was added to the apical surface to activate CFTR, followed by apical addition of a CFTR inhibitor cocktail consisting of BPO, GlyH-101, and CFTR inhibitor 172 (each at 20 μM final assay concentration) to specifically isolate CFTR currents. The CFTR-mediated ISC (μA/cm^2) for each condition was determined from the peak forskolin response to the steady-state current following inhibition.
The activity of the CFTR corrector compounds on the CFTR-mediated ISC was determined in Ussing chamber studies as described above. The F508del/MF-HBE cell cultures were either incubated with the corrector compounds at a range of concentrations in combination with 33 nM (6R,12R)-17-amino-12-methyl-6,15-bis(trifluoromethyl)-13,19-dioxa-3,4,18-triazatricyclo[12.3.1.12,5]nonadeca-1(18),2,4,14,16-pentaen-6-ol and 18 μM Tezacaftor or were incubated with the corrector compounds at a single fixed concentration of 1 μM in combination with 44 nM (6R,12R)-17-amino-12-methyl-6,15-bis(trifluoromethyl)-13,19-dioxa-3,4,18-triazatricyclo[12.3.1.12,5]nonadeca-1(18),2,4,14,16-pentaen-6-ol and 18 μM Tezacaftor for 18-24 hours at 37° C. and in the presence of 20% human serum. The concentration of corrector compounds with 44 nM or 33 nM (6R,12R)-17-amino-12-methyl-6,15-bis(trifluoromethyl)-13,19-dioxa-3,4,18-triazatricyclo[12.3.1.12,5]nonadeca-1(18),2,4,14,16-pentaen-6-ol and 18 μM Tezacaftor during the 18-24 hours incubations was kept constant throughout the Ussing chamber measurement of the CFTR-mediated ISC to ensure compounds were present throughout the entire experiment. The efficacy and potency of the putative F508del correctors was compared to that of the known Vertex corrector, (14S)-8-[3-(2-{Dispiro[2.0.2.1]heptan-7-yl}ethoxy)-1H-pyrazol-1-yl]-12,12-dimethyl-2λ^6-thia-3,9,11,18,23-pentaazatetracyclo[17.3.1.111,14.05,10]tetracosa-1(22),5,7,9,19(23),20-hexaene-2,2,4-trione, in combination with 18 μM Tezacaftor and 1 μM Ivacaftor.
• Assay A: 0.1 μM to 25 μM, 6 concentrations • Assay B: 0.00001 μM to 25 μM, 12 concentrations • Assay C: 0.026 μM to 25 μM, 6 concentrations • Assay D: Activity at single concentration of 1 μM

T1 sequence (P13569 with tags, fused parts or gaps DEL508-508): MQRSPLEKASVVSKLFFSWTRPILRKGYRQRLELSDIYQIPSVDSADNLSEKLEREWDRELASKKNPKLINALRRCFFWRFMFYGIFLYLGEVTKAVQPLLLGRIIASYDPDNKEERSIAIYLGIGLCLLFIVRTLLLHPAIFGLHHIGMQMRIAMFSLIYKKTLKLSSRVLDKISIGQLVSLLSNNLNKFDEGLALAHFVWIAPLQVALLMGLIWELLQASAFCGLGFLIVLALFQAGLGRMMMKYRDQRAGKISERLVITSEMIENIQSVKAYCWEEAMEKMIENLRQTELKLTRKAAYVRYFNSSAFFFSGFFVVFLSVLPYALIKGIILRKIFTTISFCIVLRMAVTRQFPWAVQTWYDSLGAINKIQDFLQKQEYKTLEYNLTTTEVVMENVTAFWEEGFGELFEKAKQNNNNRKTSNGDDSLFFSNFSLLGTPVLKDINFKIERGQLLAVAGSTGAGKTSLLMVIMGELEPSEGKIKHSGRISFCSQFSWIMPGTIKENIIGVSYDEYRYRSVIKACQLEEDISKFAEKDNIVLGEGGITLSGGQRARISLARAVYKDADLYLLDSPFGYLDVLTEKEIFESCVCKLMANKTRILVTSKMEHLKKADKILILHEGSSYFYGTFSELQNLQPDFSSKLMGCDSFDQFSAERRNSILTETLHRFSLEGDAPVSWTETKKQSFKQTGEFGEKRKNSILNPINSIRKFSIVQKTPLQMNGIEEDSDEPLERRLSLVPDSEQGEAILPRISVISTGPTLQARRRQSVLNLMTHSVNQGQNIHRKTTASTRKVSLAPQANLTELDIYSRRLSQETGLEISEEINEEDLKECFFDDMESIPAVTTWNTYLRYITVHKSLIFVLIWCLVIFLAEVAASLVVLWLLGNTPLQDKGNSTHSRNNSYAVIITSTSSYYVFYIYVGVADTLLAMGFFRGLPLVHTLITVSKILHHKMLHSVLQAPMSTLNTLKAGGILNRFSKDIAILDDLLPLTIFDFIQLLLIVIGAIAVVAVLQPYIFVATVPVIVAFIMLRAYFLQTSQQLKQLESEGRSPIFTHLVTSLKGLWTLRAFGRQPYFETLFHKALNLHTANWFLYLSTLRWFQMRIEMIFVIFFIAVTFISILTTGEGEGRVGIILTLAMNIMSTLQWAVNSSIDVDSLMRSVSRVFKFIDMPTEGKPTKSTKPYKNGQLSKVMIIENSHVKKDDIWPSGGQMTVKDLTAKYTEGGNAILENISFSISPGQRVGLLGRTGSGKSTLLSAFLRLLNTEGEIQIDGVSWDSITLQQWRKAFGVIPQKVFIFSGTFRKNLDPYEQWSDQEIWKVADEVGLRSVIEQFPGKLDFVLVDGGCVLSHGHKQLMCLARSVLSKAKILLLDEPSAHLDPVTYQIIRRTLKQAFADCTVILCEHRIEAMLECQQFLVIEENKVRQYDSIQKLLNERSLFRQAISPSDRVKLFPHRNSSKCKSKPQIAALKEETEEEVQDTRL

In the case of `CCc1cccc(CC)c1-c1cc2nc(n1)NS(=O)(=O)c1cccc(c1)C(=O)N(Cc1cnc3oc(C(C)(C)C)cc3n1)[C@H](CC(C)(C)C)CO2` [IV-67], the negative-log EC50 (pEC50) is 4.52 to 5.52 and the Emax was above 60%.

Turning to `Cc1cccc(C)c1-c1nc2nc(c1C)OC[C@@H](C[C@H]1CCCO1)N(Cc1cnc3cc(C4(C(F)(F)F)CC4)n(C)c3n1)C(=O)c1cccc(c1)S(=O)(=O)N2` [IV-106], the negative-log EC50 (pEC50) is above 6.00 and the Emax is above 60%.

For `Cc1cccc(C)c1-c1cc2nc(n1)NS(=O)(=O)c1cccc(c1)C(=O)N(Cc1cnc3c(n1)CN(C(C)C)C3=O)[C@H](CC1(C)CC1)CO2` [III-18], the pEC50 is 5.52 to 6.00. For the setting “18-24 hours”, the Emax was above 60%.

As to `Cc1cccc(C)c1-c1cc2nc(n1)NS(=O)(=O)c1cccc(c1)C(=O)N(Cc1cnc3oc(C(C)(C)C)cc3n1)[C@H](COC(C)C)CO2` [Compound I-174], the negative-log EC50 (pEC50) is 4.52 to 5.52. Where the note is “18-24 hours”, the Emax is above 60%.

Consider `Cc1cccc(C)c1-c1cc2nc(n1)NS(=O)(=O)c1cccc(c1)C(=O)N(Cc1cnc3cc(C4(C(F)(F)F)CC4)n(C)c3n1)[C@H](CC13CC(C1)C3)CO2` [IV-73], for which the negative logarithm of the EC50 (pEC50) is above 6.00 and the Emax was above 60%.

For `Cc1cccc(C)c1-c1nc2nc(c1C)OC[C@@H](CC(C)(C)C)N(Cc1ncc3oc(C(C)(C)C)cc3n1)C(=O)c1cccc(c1)S(=O)(=O)N2` [Compound I-259], the negative-log EC50 (pEC50) is above 6.00. In addition, where the note is “18-24 hours”, the Emax is above 60%.

Regarding `Cc1cccc(C)c1-c1cc2nc(n1)NS(=O)(=O)c1cccc(c1)C(=O)N(Cc1cnc3oc(C(C)(C)C)cc3n1)[C@H](C[C@@H]1CCCO1)CO2` [IV-83], the negative logarithm of the EC50 (pEC50) is 5.52 to 6.00 and the Emax was above 60%.

Consider `COc1c2nc(nc1-c1c(C)cccc1C)NS(=O)(=O)c1cccc(c1)C(=O)N(Cc1cnc3cc(C4(C(F)(F)F)CC4)n(C)c3n1)[C@H](COC(C)C)CO2` [IV-104], for which the pEC50 is 5.52 to 6.00 and the Emax is above 60%.

For the compound `Cc1cccc(C)c1-c1cc2nc(n1)NS(=O)(=O)c1cccc(c1)C(=O)N(Cc1cnc3oc(C4CC4)cc3n1)[C@H]([C@H](C)OCc1ccccc1)CO2` [IV-62], the pEC50 was 4.52 to 5.52 and the Emax is above 60%.

For `C=C(C)c1cc2nc(CN3C(=O)c4cccc(c4)S(=O)(=O)Nc4nc(cc(-c5c(C)cccc5C)n4)OC[C@H]3CC3(C)CC3)cnc2o1` [Compound I-255, (11R)-6-(2,6-dimethylphenyl)-12-[(6-isopropenylfuro[2,3-b]pyrazin-2-yl)methyl]-11-[(1-methylcyclopropyl)methyl]-2,2-dioxo-9-oxa-2λ^6-thia-3,5,12,19-tetrazatricyclo[12.3.1.14,8]nonadeca-1(18),4(19),5,7,14,16-hexaen-13-one], the pEC50 was 5.52 to 6.00. The Emax (18-24 hours) is above 60%.

For the compound `Cc1cccc(C)c1-c1cc2nc(n1)NS(=O)(=O)c1cccc(c1)C(=O)N(Cc1cnc3oc(C(C)CO)cc3n1)[C@H](CC1(C)CC1)CO2` (some centres unmarked) [Compound I-256], the negative logarithm of the EC50 (pEC50) was 5.52 to 6.00. In addition, where the note is “18-24 hours”, the Emax was above 60%.

Regarding `Cc1cccc(CC(C)C)c1-c1nc2nc(c1C)OC[C@@H](COC(C)C)N(Cc1cnc3oc(C(C)(C)C)cc3n1)C(=O)c1cccc(c1)S(=O)(=O)N2` (atropisomer, axis not shown) [IV-43], the negative-log EC50 (pEC50) is 5.52 to 6.00 and the Emax is above 60%.

On to `COCCc1c(C(C)(C)C)n(C)c2nc(CN3C(=O)c4cccc(c4)S(=O)(=O)Nc4nc(cc(-c5c(C)cccc5C)n4)OC[C@H]3CC34CC(C3)C4)cnc12` [IV-82, (11R)-11-(1-bicyclo[1.1.1]pentanylmethyl)-12-[[6-tert-butyl-7-(2-methoxyethyl)-5-methyl-pyrrolo[2,3-b]pyrazin-3-yl]methyl]-6-(2,6-dimethylphenyl)-2,2-dioxo-9-oxa-2λ^6-thia-3,5,12,19-tetrazatricyclo[12.3.1.14,8]nonadeca-1(18),4(19),5,7,14,16-hexaen-13-one], for which the pEC50 is above 6.00 and the Emax is above 60%.

On to `Cc1cccc(CC(C)C)c1-c1nc2nc(c1C)OC[C@@H](CC1(C)CC1)N(Cc1cnc3cc(C4(C(F)(F)F)CC4)n(C)c3n1)C(=O)c1cccc(c1)S(=O)(=O)N2` (atropisomer, axis not shown) [IV-77], for which the pEC50 is 5.52 to 6.00 and the Emax was above 60%.

As to `COCc1c(C(C)(C)C)n(C)c2nc(CN3C(=O)c4cccc(c4)S(=O)(=O)Nc4nc(cc(-c5c(C)cccc5C)n4)OC[C@H]3CC34CC(C3)C4)cnc12` [IV-89, (11R)-11-(1-bicyclo[1.1.1]pentanylmethyl)-12-[[6-tert-butyl-7-(methoxymethyl)-5-methyl-pyrrolo[2,3-b]pyrazin-3-yl]methyl]-6-(2,6-dimethylphenyl)-2,2-dioxo-9-oxa-2λ^6-thia-3,5,12,19-tetrazatricyclo[12.3.1.14,8]nonadeca-1(18),4(19),5,7,14,16-hexaen-13-one], the pEC50 was above 6.00 and the Emax was above 60%.

With `Cc1cccc(C)c1-c1cc2nc(n1)NS(=O)(=O)c1cccc(c1)C(=O)N(Cc1cnc3oc(C4(C)CC4)cc3n1)[C@H](C[C@@H]1CCCCO1)CO2` [IV-87], the negative-log EC50 (pEC50) is 4.52 to 5.52 and the Emax was above 60%.

As to `Cc1cccc(C)c1-c1cc2nc(n1)NS(=O)(=O)c1cccc(c1)C(=O)N(Cc1cnc3cc(C4(C(F)(F)F)CC4)n(C)c3n1)[C@H](C[C@@H]1CCCO1)CO2` [IV-103], the pEC50 was 5.52 to 6.00 and the Emax was above 60%.

In the case of `Cc1cccc(C)c1-c1cc2nc(n1)NS(=O)(=O)c1cccc(c1)C(=O)N(Cc1ncc3oc(C(C)(C)C)cc3n1)[C@H](CC13CC(C1)C3)CO2` [Compound I-251], the pEC50 was 5.52 to 6.00. Besides, for the setting “18-24 hours”, the Emax was above 60%.

On to `Cc1cccc(C)c1-c1cc2nc(n1)NS(=O)(=O)c1cccc(c1)C(=O)N(Cc1nc3cc(C4CC4)oc3cc1F)[C@H](CC13CC(C1)C3)CO2` [Compound I-208], for which the pEC50 is 5.52 to 6.00. Also, the Emax (18-24 hours) was above 60%.

As for `Cc1cccc(CC2CCCC2)c1-c1nc2nc(c1C)OC[C@@H](CC(C)(C)C)N(Cc1cnc3cc(C(C)C)n(C)c3n1)C(=O)c1cccc(c1)S(=O)(=O)N2` (atropisomer, axis not shown; (P)) [Compound I-196, (5P,11R)-6-[2-(cyclopentylmethyl)-6-methylphenyl]-11-(2,2-dimethylpropyl)-7-methyl-12-{[5-methyl-6-(propan-2-yl)-5H-pyrrolo[2,3-b]pyrazin-3-yl]methyl}-9-oxa-2λ^6-thia-3,5,12,19-tetraazatricyclo[12.3.1.1∧{4,8}]nonadeca-1(17),4(19),5,7,14(18),15-hexaene-2,2,13-trione], the pEC50 was above 6.00. In addition, the Emax (18-24 hours) is above 60%.

Turning to `Cc1cccc(C)c1-c1cc2nc(n1)NS(=O)(=O)c1cccc(c1)C(=O)N(Cc1ccn3cc(C(C)C)nc3n1)[C@H](CC13CC(C1)C3)CO2` [IV-63, (11R)-11-(1-Bicyclo[1.1.1]pentanylmethyl)-6-(2,6-dimethylphenyl)-12-[(2-isopropyl-imidazo[1,2-a]pyrimidin-7-yl)methyl]-2,2-dioxo-9-oxa-2λ^6-thia-3,5,12,19-tetrazatricyclo[12.3.1.14,8]nonadeca-1(18),4(19),5,7,14,16-hexaen-13-one], the pEC50 is above 6.00 and the Emax is above 60%.

As to `Cc1cccc(CC(C)C)c1-c1nc2nc(c1C)OC[C@@H](C(C)C)N(Cc1cnc3cc(C(C)(C)C)n(C)c3n1)C(=O)c1cccc(c1)S(=O)(=O)N2` (atropisomer, axis not shown) [IV-79], the pEC50 is above 6.00 and the Emax is above 60%.
